Measurements published in patent US5008283A (Pfizer Inc., priority 1990, dated 1991).

How the values were obtained:
collagenase [1] = experiment: Inhibition of release of activated collagenase by IgG-stimulated neutrophils; assay type: cell-based, human; conditions: for inhibitory effect on the release of activated collagenase by neutrophils (in words): as shown in Table I; for Inhibition of Activated Neutrophil Collagenase Release, % Inhibition: human neutrophils on IgG coated wells; for inhibitory effect on the release of activated collagenase (in words): at supraphysiological concentrations for those compounds
Description: (§1) Whole human blood from normal volunteers was obtained by venipuncture into heparinized syringes. The majority of the red cells were removed by dextran sedimentation and neutrophils were separated by density centrifugation over hypaque ficoll. The neutrophil rich fraction was washed and residual red cells were removed by hypotonic lysis according to the procedure described by Blackburn, W.D. et al., Arthritis Rheum. 30:1006-1014 (1987). The neutrophils so prepared were used in the assays described below and cell viability was assured by determining their ability to exclude typan blue. In each assay the cell viability routinely exceeded 95%.
To assay for inhibition of release of activated collagenase by neutrophils,the following assay was performed. Neutrophil cell suspensions were incubated at 37° C. for 15-30 minutes in the presence of varying concentrations of tenidap or other compound under study. Tenidap was dissolved and diluted in water and added to the cells directly therefrom. Other compounds tested were initially dissolved in 0.1M NaOH and then diluted in water prior to addition to the cells. After the cells had been incubated in the presence of tenidap or other compound under study, the cell suspensions (5 × 10^6 cells/ml, 125 μl/well) were added to IgG coated and bovine serum albumin (BSA) blocked wells of microtiter plates and incubated for 45 minutes at 37° C. As controls, similar incubations were performed in the absence of IgG. Following incubation, the cell suspensions were centrifuged (750 × g) for 5 minutes at 4° C. The supernatants were removed and DFP (diisopropylfluorophosphate) was added to a final concentration of 10^-3 M to inactivate serine proteases.
Then, the collagenase activity in the DFP treated supernatants was determined by incubating, in triplicate, 200 μl aliquots of supernatant with ^3 H-labeled reconstituted type-I collagen fibrils in 7 mm flat bottom tissue culture wells (Linbro®, Cat #76-032-05, Flow Laboratories McLean, Va) as described by Johnson-Wint, B., Anal. Biochem. 104:175-181 (1980). The reconstituted fibrils in each well contained 75 μg of a mixture of ^3 H-labeled and unlabeled collagen with an activity of 7,000 cpm. To determine the total radioactivity potentially released from the fibrils in each experiment, the reconstituted fibrils were also incubated with a mixture of clostridial collagenase (250 mg/ml HBSS (Hank's balanced salt solution, GIBCO, Grand Island, N.Y.)). To maximize sensitivity and specificity of the assay, incubations were performed for eighteen hours in triplicate at 37° C. At the end of the incubation period, the supernatants were aspirated from each well and the radioactivity was determined by counting in a liquid scintillation counter. Greater than 99% of the radioactivity applied to each well was recovered from wells incubated with bacterial collagenase. Average counts per minute released by fibrils incubated with buffer (HBSS) alone were subtracted from the cpm measured in each supernatant. The resulting triplicate values for each supernatant were averaged and divided by the average cpm released by the bacterial collagenase to determine the percent fibril lysis produced by each supernatant. The total activated collagen released during the eighteen hour incubation was then calculated and divided by the incubation time to yield values for the collagenase activity (ng collagen degraded/min) in each supernatant.

collagenase [2] = experiment: Total collagenase released by IgG-stimulated neutrophils (supernatants activated with mersalyl); assay type: cell-based, human; conditions: supernatants activated with organic mercurial, tenidap concentration not given
Description: as §1
In parallel experiments, release of total collagenase into the supernatants was determined by activating latent collagenase in the supernatants with 1.0 mM mersalyl (Harris, E.D. and Vater, C.A., Methodology of collagenase research: substrate purification, enzyme activation and purification. Collagenase in Normal Pathological Connective Tissues. Edited by D. E. Woolley, J. M. Evanson, Chichester, John Wiley & Sons, 1980) prior to addition of the supernatants to the radiolabeled collagen fibrils. […]

myeloperoxidase = experiment: Myeloperoxidase activity assay (ABTS/hydrogen peroxide, absorbance at 412 nm); assay type: biochemical; conditions: myeloperoxidase extracted from human neutrophils; varying concentrations of tenidap; figures not given
Description: as §1
Neutrophils (1.25 × 10^6 /ml, prepared as described above) were incubated for 60 minutes at 37° C. in either BSA or IgG coated tissue culture wells which had been blocked with BSA. Following incubation, the wells were aspirated and the cells were removed by centrifugation. […] Myeloperoxidase activity was then determined by adding 20 μl of the supernatant to 300 μl of 0.2M sodium acetate buffer, pH 4.5, containing 17 mg of 2,2'-azino-di-(3-ethylbenzthiazoline)sulfonic acid and 600 μl of 0.003% hydrogen peroxide. The activity of myeloperoxidase in the supernatant was then determined by the change in absorbance at 412 nm using a spectrophotometer as described by Shindler, J.S. et al., Eur. J. Biochem. 65:325-331 (1976).

Compound: CC(C)Cc1ccc(C(C)C(=O)O)cc1 (stereo not drawn) [Ibuprofen]
- inhibitory effect on the release of activated collagenase by neutrophils (in words) (collagenase [1]): no inhibitory effect
- Inhibition of Activated Neutrophil Collagenase Release, % Inhibition (collagenase [1]; peak concentration 175 μM): 0%

Compound: COc1ccc2c(c1)c(CC(=O)O)c(C)n2C(=O)c1ccc(Cl)cc1 [Indomethacin]
- inhibitory effect on the release of activated collagenase (in words) (collagenase [1]): some inhibitory effect
- Inhibition of Activated Neutrophil Collagenase Release, % Inhibition (collagenase [1]; peak concentration 2.5 μM): 14%

Compound: COc1ccc2cc([C@H](C)C(=O)O)ccc2c1 [Naproxen]
- inhibitory effect on the release of activated collagenase by neutrophils (in words) (collagenase [1]): no inhibitory effect
- Inhibition of Activated Neutrophil Collagenase Release, % Inhibition (collagenase [1]; peak concentration 80 μM): 0%

Compound: CN1C(C(=O)Nc2ccccn2)=C(O)c2ccccc2S1(=O)=O [Piroxicam]
- inhibitory effect on the release of activated collagenase (in words) (collagenase [1]): some inhibitory effect
- Inhibition of Activated Neutrophil Collagenase Release, % Inhibition (collagenase [1]; peak concentration 25 μM): 18%

Compound: NC(=O)N1C(=O)C(C(=O)c2cccs2)c2cc(Cl)ccc21 (stereo not drawn) [Tenidap, 5-chloro-2,3-dihydro-2-oxo-3-(2-thienylcarbonyl)-indole-1-carboxamide]
- inhibition of the release of activated collagenase from neutrophils (in words) (collagenase [1]; at clinically relevant concentrations): significantly inhibited
- Inhibition of Activated Neutrophil Collagenase Release, % Inhibition (collagenase [1]; peak concentration 87.5 μM): 64%
- inhibition of the total amount of collagenase released by neutrophils (collagenase [2]): 22%
- inhibition of the activity of myeloperoxidase (in words) (myeloperoxidase): inhibit the activity of myeloperoxidase
